Data on six compounds can be found in PMC10442399, “Crystal structure and functional implications of cyclic di-pyrimidine-synthesizing cGAS/DncV-like nucleotidyltransferases” (Nature Communications, 2023).

“Also recorded” adds a separate entry of the source. Like-named read-outs stand apart in the source and are kept apart here.

The Kd is the free concentration of one partner at which half of the binding sites on the other are occupied at equilibrium, for simple one-to-one binding.

For one test, the target named is T1, EfCdnE^W281A (Enterococcus faecalis, UniProt P0DX98, W281A).
T1 construct: Full-length gene fragments encoding ClCdnE from Cecembia lonarensis; His6 (C); made in house; host or cells: E. coli BL21 (DE3)
T1 sequence (P0DX98 1-299 W281A): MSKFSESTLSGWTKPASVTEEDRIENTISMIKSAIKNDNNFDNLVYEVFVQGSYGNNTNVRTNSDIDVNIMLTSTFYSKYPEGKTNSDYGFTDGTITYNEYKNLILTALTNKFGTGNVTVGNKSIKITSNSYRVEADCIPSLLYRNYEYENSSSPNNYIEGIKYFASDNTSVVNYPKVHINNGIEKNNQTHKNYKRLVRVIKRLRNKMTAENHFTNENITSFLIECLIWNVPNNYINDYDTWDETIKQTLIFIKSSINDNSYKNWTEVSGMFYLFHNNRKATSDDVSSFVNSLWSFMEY
As to the kind of experiment: ITC analysis of nucleotide binding to EfCdnE^W281A mutant. Conditions: read-out: dissociation constant (KD). The source says: (§1) To validate the importance of this motif, we changed Arg279 and Trp281 of EfCdnE to a smaller alanine residue and assessed the substrate specificity and product synthesis of both wild-type and mutant EfCdnE by ITC and LC-MS/MS. […] Based on sequence conservation and structural similarity, it is proposed that the cyclic di-pyrimidine-synthesizing CdnE proteins, including ClCdnE, EfCdnE, and LpCdnE, form smaller donor pockets that act as molecular gauges to recognize and retain the binding of pyrimidine nucleotides but weaken or exclude the binding to purine nucleotides (Fig. 6F). In combination with the conserved Asn residue in the acceptor pocket, the substrate specificity for double pyrimidine was achieved (Fig. 6F).
(§2) EfCdnE was chosen as the sample to evaluate the affinity of this class of enzyme to different nucleotides by isothermal titration calorimetry (ITC), using nano-ITC (TA Instruments). EfCdnE was dialyzed overnight against an assay buffer containing 20 mM Tris pH 8.0, 150 mM NaCl. The nucleotides to be tested (UTP, CTP, ATP and GTP, and their analogs) were each dissolved in the same buffer. […] The final data were analyzed and curve-fitted with sequential two-site mode by using NanoAnalyze v3.12.5 (TA Instruments).
Background: Isothermal titration calorimetry measures the heat released or taken up as one component is titrated into another.

In a further test the target is T2, EfCdnE (Enterococcus faecalis, UniProt P0DX98).
T2 construct: Full-length gene fragments encoding ClCdnE from Cecembia lonarensis; made in house; host or cells: E. coli BL21 (DE3)
T2 sequence (P0DX98 whole entry, the tested form may be a part): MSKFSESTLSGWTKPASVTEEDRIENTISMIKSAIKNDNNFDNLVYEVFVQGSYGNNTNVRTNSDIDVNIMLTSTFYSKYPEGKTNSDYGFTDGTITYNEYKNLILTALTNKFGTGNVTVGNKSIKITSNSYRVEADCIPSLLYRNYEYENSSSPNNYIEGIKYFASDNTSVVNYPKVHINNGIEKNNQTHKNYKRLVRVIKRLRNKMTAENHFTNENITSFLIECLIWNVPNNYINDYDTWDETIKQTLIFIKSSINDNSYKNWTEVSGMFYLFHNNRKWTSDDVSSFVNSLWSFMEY
The test can be described thus: ITC analysis of nucleotide binding to wild-type EfCdnE. As for the experimental part: EfCdnE was chosen as the sample to evaluate the affinity of this class of enzyme to different nucleotides by isothermal titration calorimetry (ITC), using nano-ITC (TA Instruments). EfCdnE was dialyzed overnight against an assay buffer containing 20 mM Tris pH 8.0, 150 mM NaCl. The nucleotides to be tested (UTP, CTP, ATP and GTP, and their analogs) were each dissolved in the same buffer. Titration was carried out by 20 sequential injections of the nucleotide at a concentration of 250 μM at 3-min intervals to 50 μM EfCdnE, with a stirring speed of 300 rpm. The heat of dilution resulting from injecting the nucleotide into the assay buffer was subtracted. The final data were analyzed and curve-fitted with sequential two-site mode by using NanoAnalyze v3.12.5 (TA Instruments).

Another test has as its target T3, EfCdnE^R279A (Enterococcus faecalis, UniProt P0DX98, R279A).
T3 construct: Full-length gene fragments encoding ClCdnE from Cecembia lonarensis; His6 (C); made in house; host or cells: E. coli BL21 (DE3)
The test can be described thus: ITC analysis of nucleotide binding to EfCdnE^R279A mutant.
From the text: as §1, §2

Setting [1] is: dissociation constant (KD), second of two binding sites, ITC, wild-type EfCdnE, sequential two-site fit, second-named site (acceptor pocket for UMPnPP).

T3 sequence (P0DX98 whole entry R279A, the tested form may be a part): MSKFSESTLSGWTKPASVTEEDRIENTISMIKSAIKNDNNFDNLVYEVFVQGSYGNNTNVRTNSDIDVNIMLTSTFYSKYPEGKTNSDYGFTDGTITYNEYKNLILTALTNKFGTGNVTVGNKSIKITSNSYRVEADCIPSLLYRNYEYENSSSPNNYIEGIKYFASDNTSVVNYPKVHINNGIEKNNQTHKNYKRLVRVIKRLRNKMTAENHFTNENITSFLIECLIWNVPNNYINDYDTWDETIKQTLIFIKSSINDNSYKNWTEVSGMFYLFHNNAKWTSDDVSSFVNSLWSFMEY

Turning to `Nc1ncnc2c1ncn2[C@@H]1O[C@H](COP(=O)(O)CP(=O)(O)OP(=O)(O)O)[C@@H](O)[C@H]1O` [AMPcPP], the Kd on EfCdnE^W281A was 35000 nM. Further, the “binding to EfCdnE (in words)” value on EfCdnE (ITC, wild-type EfCdnE) is “No binding; also recorded: too weak to be detected”.
For `Nc1ncnc2c1ncn2[C@@H]1O[C@H](COP(=O)(O)OP(=O)(O)OP(=O)(O)O)[C@@H](O)[C@H]1O` [ATP], the “binding to EfCdnE (in words)” value at EfCdnE (ITC, wild-type EfCdnE) is listed as “did not”. Moreover, at EfCdnE^R279A, the “binding affinity, dissociation constant (in words)” value is reported as “near micromolar”.
Turning to `Nc1ccn([C@@H]2O[C@H](COP(=O)(O)CP(=O)(O)OP(=O)(O)O)[C@@H](O)[C@H]2O)c(=O)n1` [CMPcPP], the Kd was found to be 18.7 nM on EfCdnE and 1270 nM at EfCdnE (setting [1]). Further, the “binding to EfCdnE pre-incubated with UMPnPP (in words)” value at EfCdnE (ITC, EfCdnE pre-incubated with UMPnPP) was “no binding; also recorded: did not bind”.
For the compound `Nc1nc2c(ncn2[C@@H]2O[C@H](COP(=O)(O)CP(=O)(O)OP(=O)(O)O)[C@@H](O)[C@H]2O)c(=O)[nH]1` [GMPcPP], the dissociation constant Kd on EfCdnE^W281A was found to be 65000 nM. On EfCdnE (ITC, wild-type EfCdnE), the “binding to EfCdnE (in words)” value is “No binding; also recorded: too weak to be detected”.
As to `Nc1nc2c(ncn2[C@@H]2O[C@H](COP(=O)(O)OP(=O)(O)OP(=O)(O)O)[C@@H](O)[C@H]2O)c(=O)[nH]1` [GTP], the “binding to EfCdnE (in words)” value at EfCdnE (ITC, wild-type EfCdnE) is listed as “did not”. The “binding affinity, dissociation constant (in words)” value at EfCdnE^R279A was “near micromolar”.
On to `O=c1ccn([C@@H]2O[C@H](COP(=O)(O)NP(=O)(O)OP(=O)(O)O)[C@@H](O)[C@H]2O)c(=O)[nH]1` [UMPnPP], for which the Kd was found to be 14.7 nM on EfCdnE and 980 nM at EfCdnE (setting [1]).
